{"source": "patent US6878531B1", "about": "“Method for multiple site-directed mutagenesis” (Medical College of Georgia Research Institute, priority 2003, dated 2005)", "tested_on": "C.albicans cells", "test": "Effective inhibitory concentrations for C.albicans cells grown in YPD medium", "type": "cell-based, Candida albicans", "settings": "C.albicans cells grown in YPD medium at 30° C."}
{"smiles": "CN[C@@H]1[C@@H](O)[C@@H](O[C@@H]2[C@@H](O)[C@H](O[C@H]3O[C@H]([C@@H](C)O)[C@@H](O)[C@H](O)[C@H]3N)[C@@H](N)C[C@H]2N)OC[C@]1(C)O", "note": "[G418]", "values": [{"measurement": "IC50 (effective inhibitory concentration)", "result": 11, "unit": "µg/mL"}, {"measurement": "IC90 (effective inhibitory concentration)", "result": 39, "unit": "µg/mL"}]}
